According to ChEMBL document CHEMBL5230154, “Chemical probe of AHL modulators on quorum sensing in Gram-Negative Bacteria and as antiproliferative agents: A review” (Eur J Med Chem, 2021):

Tests used:
[1] = target: T1, Transcriptional activator protein LasR (Pseudomonas aeruginosa (strain ATCC 15692 / PAO1 / 1C / PRS 101 / LMG12228), UniProt P25084); assay: Antagonist activity against LasR-mediated quorum sensing system in Pseudomonas aeruginosa PAO1 by spectrophotometric assay
T1 sequence (P25084 whole entry): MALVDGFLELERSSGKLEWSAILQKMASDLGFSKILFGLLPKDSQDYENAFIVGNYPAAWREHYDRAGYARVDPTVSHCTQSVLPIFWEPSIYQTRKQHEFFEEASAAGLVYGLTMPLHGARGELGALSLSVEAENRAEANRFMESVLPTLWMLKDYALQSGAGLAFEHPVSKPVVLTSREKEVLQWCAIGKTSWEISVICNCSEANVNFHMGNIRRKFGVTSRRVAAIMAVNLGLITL

Pseudomonas aeruginosa [2] = assay: Inhibition of quorum sensing system in Pseudomonas aeruginosa MH602 PlasB-gfp(ASV) assessed as inhibition of green fluorescent protein production at 62.5 to 250 uM for 20 hrs by fluorescence assay; conditions: dose 62.5-250 µM
[3] = Inhibition of quorum sensing system in Chromobacterium violaceum CV026 assessed as inhibition of violacein production incubated for 16 to 18 hrs by spectrophotometric assay
Pseudomonas aeruginosa [4] = assay: Inhibition of quorum sensing system in Pseudomonas aeruginosa MH602 PlasB-gfp(ASV) assessed as inhibition of green fluorescent protein production at 125 uM for 20 hrs by fluorescence assay
Pseudomonas aeruginosa [5] = assay: Inhibition of quorum sensing system in Pseudomonas aeruginosa MH602 PlasB-gfp(ASV) assessed as inhibition of green fluorescent protein production at 250 uM for 20 hrs by fluorescence assay
Pseudomonas aeruginosa [6] = assay: Inhibition of quorum sensing system in Pseudomonas aeruginosa MH602 PlasB-gfp(ASV) assessed as inhibition of green fluorescent protein production at 62.5 uM for 20 hrs by fluorescence assay
[7] = Inhibition of Escherichia coli DH5alpha LasR co-expressing LasR beta-galactosidase reporter assessed as inhibition of beta-galactosidase activity incubated for 2 hrs by spectrophotometric assay
Escherichia coli = assay: Inhibition of Escherichia coli DH5alpha LasR co-expressing LasR beta-galactosidase reporter assessed as inhibition of beta-galactosidase activity at 100 uM incubated for 2 hrs by spectrophotometric assay
Pseudomonas aeruginosa [8] = assay: Inhibition of quorum sensing system in Pseudomonas aeruginosa MH602 expressing PlasB::gfp assessed as inhibition of GFP fluorescence expression at 250 uM incubated for 15 hrs by fluorescence microplate reader analysis
[9] = Agonist activity against RhlR in Escherichia coli expressing JLD271/pJN105R2/pSC11-rhlI using CPRG as substrate by spectrophotometric assay
Pseudomonas aeruginosa [10] = assay: Inhibition of Pseudomonas aeruginosa MH602 harboring PlasB::gfp(ASV) reporter assessed as decrease in GFP expression at 250 uM incubated for 22 hrs by fluorescence microplate reader analysis
[11] = Antagonist activity against quorum sensing system in Vibrio harveyi BB120 assessed as inhibition of […] incubated for 5 hrs by bioluminescence assay
[12] = Inhibition of quorum sensing system in Pseudomonas aeruginosa PAO1 assessed as inhibition of rhamnolipid production at 15 uM incubated for 12 hrs by spectrophotometric assay
[13] = Inhibition of quorum sensing system in Pseudomonas aeruginosa PAO1 assessed as inhibition of pyocyanin production at 15 uM incubated for 12 hrs by spectrophotometric assay
Pseudomonas aeruginosa [14] = assay: Inhibition of biofilm formation in Pseudomonas aeruginosa PAO1 incubated for 12 hrs by crystal violet staining based analysis; type: functional
[15] = Inhibition of quorum sensing system in Pseudomonas aeruginosa PAO1 assessed as decrease in lasI expression at 15 uM incubated for 12 hrs by real-time fluorescent quantitative PCR analysis

O=C(CNc1ccc(C(=O)/C=C/c2cc(Cl)cc(Cl)c2)cc1)N[C@H]1CCOC1=O
IC50 [1]: 46.8 µM

O=C(Cn1cc(-c2ccc([N+](=O)[O-])cc2)nn1)Nc1nc2ccccc2[nH]1
inhibition (Pseudomonas aeruginosa [2]): 63.7%

O=C(Nc1ccc(S(=O)(=O)N[C@H]2CCOC2=O)cc1)c1cccc(F)c1
IC50 [3]: 7.79 µM

O=C(Cn1cc(-c2ccc(Cl)cc2)nn1)Nc1nc2ccccc2[nH]1
inhibition (Pseudomonas aeruginosa [4]): 60.5%
inhibition (Pseudomonas aeruginosa [5]): 65%
inhibition (Pseudomonas aeruginosa [6]): 52.9%

CCCCCCCc1cn(CC(=O)Nc2nc3ccccc3[nH]2)nn1
inhibition (Pseudomonas aeruginosa [4]): 34%
inhibition (Pseudomonas aeruginosa [5]): 42%
inhibition (Pseudomonas aeruginosa [6]): 25%

O=C(CNc1ccc(C(=O)/C=C/c2ccc(Cl)cc2)cc1)N[C@H]1CCOC1=O
IC50 [1]: 46.8 µM

CCCCc1cn(CC(=O)N[C@H]2CCOC2=O)nn1
IC50 [7]: 17.6 µM
inhibition (Escherichia coli): 75%

O=C(CNc1ccc(C(=O)/C=C/c2ccccc2)cc1)N[C@H]1CCOC1=O
IC50 [1]: 62.5 µM

O=C(CNc1ccc(C(=O)/C=C/c2ccc(Cl)c(Cl)c2)cc1)N[C@H]1CCOC1=O
IC50 [1]: 46.8 µM

O=C(Nc1ccc(S(=O)(=O)N[C@H]2CCOC2=O)cc1)c1ccccc1Cl
IC50 [3]: 1.66 µM

CCCCN1CC(Cl)=C(Cl)C1=O
inhibition (Pseudomonas aeruginosa [8]): 71.4%

O=C(CCC1CC1)N[C@H]1CCOC1=O
EC50 [9]: 2.76 µM

Cc1ccc2c(c1)C(=O)C(=O)N2C(=O)CCl
inhibition (Pseudomonas aeruginosa [10]): 57.4%

C/C=C/CCC(=O)N[C@H]1CCOC1=O
EC50 [9]: 6.93 µM

O=C(CNc1ccc(C(=O)/C=C/c2ccccc2Br)cc1)N[C@H]1CCOC1=O
IC50 [1]: 37.6 µM

Cc1cc2nc(NC(=O)Cn3cc(-c4ccc(C(F)(F)F)cc4)nn3)[nH]c2cc1C
inhibition (Pseudomonas aeruginosa [2]): 36.1%

CCOC(=O)CC(=O)c1ccc(OC)cc1
IC50 [11]: 36 µM

O=C(CNc1ccc(C(=O)/C=C/c2ccc(Br)cc2F)cc1)N[C@H]1CCOC1=O
IC50 [1]: 26.5 µM

O=C(Cn1cc(-c2ccccc2)nn1)N[C@H]1CCOC1=O
IC50 [7]: 15.9 µM
inhibition (Escherichia coli): 89.6%

O=C(Cn1cc(-c2ccc(C(F)(F)F)cc2)nn1)Nc1nc2ccccc2[nH]1
inhibition (Pseudomonas aeruginosa [2]): 57.5%

O=C(Cn1cc(-c2ccc(Br)cc2)nn1)Nc1nc2ccccc2[nH]1
inhibition (Pseudomonas aeruginosa [2]): 45.7%

CCCCCc1cn(CC(=O)Nc2nc3ccccc3[nH]2)nn1
inhibition (Pseudomonas aeruginosa [4]): 34%
inhibition (Pseudomonas aeruginosa [5]): 42%
inhibition (Pseudomonas aeruginosa [6]): 25%

CCOC(=O)CC(=O)c1ccc(C)cc1
IC50 [11]: 96 µM

Cc1ccc2c(c1)C(=O)C(=O)NCc1cnnn1CC(=O)Nc1ccc(C)cc1C(=O)C(=O)NCc1cnnn1CC(=O)N2
inhibition (Pseudomonas aeruginosa [10]): 58.6%

COc1ccc(-c2cn(CC(=O)Nc3nc4ccccc4[nH]3)nn2)cc1
inhibition (Pseudomonas aeruginosa [4]): 5.16%
inhibition (Pseudomonas aeruginosa [5]): 20%

O=C(Nc1ccc(S(=O)(=O)N[C@H]2CCOC2=O)cc1)c1ccccc1F
IC50 [3]: 1.64 µM

CCOC(=O)CC(=O)c1ccc(F)cc1
IC50 [11]: 23 µM

O=C(Nc1ccc(S(=O)(=O)N[C@H]2CCOC2=O)cc1)c1ccccc1C(F)(F)F
IC50 [3]: 4.91 µM

CCCCCc1cn(CC(=O)N[C@H]2CCOC2=O)nn1
IC50 [7]: 3.2 µM
inhibition (Escherichia coli): 55%

O=C(N[C@H]1CCOC1=O)c1ccc(-n2cc(CSc3ccccc3)nn2)cc1
IC50 [7]: 2.64 µM
inhibition (Escherichia coli): 62%

CCOC(=O)CC(=O)c1ccccc1
IC50 [11]: 76 µM

Cc1ccc(-c2cn(CC(=O)Nc3nc4ccccc4[nH]3)nn2)cc1
inhibition (Pseudomonas aeruginosa [2]): 32%

CCOC(=O)CC(=O)c1cccc(C)c1
IC50 [11]: 56 µM

O=C(Cn1cc(C2CCCCC2)nn1)N[C@H]1CCOC1=O
IC50 [7]: 12.4 µM
inhibition (Escherichia coli): 72%

O=C(CNc1ccc(C(=O)/C=C/c2ccc(F)cc2)cc1)N[C@H]1CCOC1=O
IC50 [1]: 46.8 µM

O=C(Nc1ccc(S(=O)(=O)N[C@H]2CCOC2=O)cc1)c1ccc(Cl)cc1
IC50 [3]: 15.9 µM

CCCc1cn(CC(=O)Nc2nc3ccccc3[nH]2)nn1
inhibition (Pseudomonas aeruginosa [4]): 34%
inhibition (Pseudomonas aeruginosa [5]): 42%
inhibition (Pseudomonas aeruginosa [6]): 25%

CCOC(=O)CC(=O)c1cccc([N+](=O)[O-])c1
IC50 [11]: 71 µM

O=C(Cn1cc(C2CC2)nn1)N[C@H]1CCOC1=O
inhibition (Escherichia coli): 52%

CCOC(=O)CC(=O)c1cccc(OC)c1
IC50 [11]: 41 µM

CCCCCC(=O)Nc1ccc(S(=O)(=O)N[C@H]2CCOC2=O)cc1
IC50 [3]: 29 µM

O=C(CCSc1nc2ccccc2s1)N[C@H]1CCOC1=O
inhibition [12]: 22.2%
inhibition [13]: 15.1%
inhibition (INH) (Pseudomonas aeruginosa [14]): 38%
inhibition [15]: 32.9%

O=C(CNc1ccc(C(=O)/C=C/c2ccc(Br)cc2)cc1)N[C@H]1CCOC1=O
IC50 [1]: 46.8 µM

CCCCCC(=O)N[C@H]1CCOC1=O
EC50 [9]: 10.8 µM

O=C(Cn1cc(C2CCCC2)nn1)N[C@H]1CCOC1=O
IC50 [7]: 16.3 µM
inhibition (Escherichia coli): 70%

CCOC(=O)CC(=O)c1ccc(I)cc1
IC50 [11]: 39 µM

COc1ccc(-n2cc(CCC(=O)N[C@H]3CCOC3=O)nn2)cc1
IC50 [7]: 16.5 µM
inhibition (Escherichia coli): 75%

CCCCC(=O)Nc1ccc(S(=O)(=O)N[C@H]2CCOC2=O)cc1
IC50 [3]: 49.5 µM

Nc1cccc(-n2cc(CCC(=O)N[C@H]3CCOC3=O)nn2)c1
IC50 [7]: 4.03 µM

O=C(Cn1cc(-c2ccc(F)cc2)nn1)Nc1nc2ccccc2[nH]1
inhibition (Pseudomonas aeruginosa [2]): 49%

O=C(Cn1cc(-c2cccc([N+](=O)[O-])c2)nn1)Nc1nc2ccccc2[nH]1
inhibition (Pseudomonas aeruginosa [2]): 28.2%

O=C(NCc1ccccc1)c1ccc(N2CC(Cl)=C(Cl)C2=O)cc1
inhibition (Pseudomonas aeruginosa [8]): 30%

CCOC(=O)CC(=O)c1ccc(Br)cc1
IC50 [11]: 81 µM

CCc1cn(CC(=O)Nc2nc3ccccc3[nH]2)nn1
inhibition (Pseudomonas aeruginosa [4]): 34%
inhibition (Pseudomonas aeruginosa [5]): 42%
inhibition (Pseudomonas aeruginosa [6]): 25%

CCC(C)CC(=O)N[C@H]1CCOC1=O (stereo not given in full)
EC50 [9]: 7.77 µM

CCOC(=O)CC(=O)c1ccc([N+](=O)[O-])cc1
IC50 [11]: 53 µM

CC(C)CCC(=O)N[C@H]1CCOC1=O
EC50 [9]: 4.89 µM

C=CCN1CC(Cl)=C(Cl)C1=O
inhibition (Pseudomonas aeruginosa [8]): 76.4%

O=C(CSc1nc2ccccc2s1)N[C@H]1CCOC1=O
inhibition [12]: 20.5%
inhibition [13]: 14.2%
inhibition (INH) (Pseudomonas aeruginosa [14]): 28.6%
inhibition [15]: 50.5%

COc1cccc(/C=C/C(=O)c2ccc(NCC(=O)N[C@H]3CCOC3=O)cc2)c1
IC50 [1]: 56.5 µM

O=C(Cn1cc(-c2cc(F)cc(F)c2)nn1)N[C@H]1CCOC1=O
IC50 [7]: 13.7 µM
inhibition (Escherichia coli): 71%

O=C(Nc1ccc(S(=O)(=O)N[C@H]2CCOC2=O)cc1)c1ccc(F)cc1
IC50 [3]: 14.7 µM

CCOC(=O)CC(=O)c1ccc(Cl)cc1
IC50 [11]: 53 µM

CCCCCCNC(=O)c1ccc(N2CC(Cl)=C(Cl)C2=O)cc1
inhibition (Pseudomonas aeruginosa [8]): 30%

O=C(Cn1cc(CC2CCCCC2)nn1)N[C@H]1CCOC1=O
inhibition (Escherichia coli): 14%

O=C(CNc1ccc(C(=O)/C=C/c2ccccc2Cl)cc1)N[C@H]1CCOC1=O
IC50 [1]: 67.8 µM

CCCCNC(=O)c1ccc(N2CC(Cl)=C(Cl)C2=O)cc1
inhibition (Pseudomonas aeruginosa [8]): 30%

O=C1Cn2nncc2CNC(=O)C(=O)c2cc(F)ccc2NC(=O)Cn2nncc2CNC(=O)C(=O)c2cc(F)ccc2N1
inhibition (Pseudomonas aeruginosa [10]): 46%

O=C(Nc1ccc(S(=O)(=O)N[C@H]2CCOC2=O)cc1)c1ccccc1
IC50 [3]: 17.2 µM

CCOC(=O)CC(=O)c1cccc2ccccc12
IC50 [11]: 76 µM

CCCCCCN1CC(Cl)=C(Cl)C1=O
inhibition (Pseudomonas aeruginosa [8]): 68%

Cc1ccc(-n2cc(CCC(=O)N[C@H]3CCOC3=O)nn2)cc1
IC50 [7]: 10.9 µM
inhibition (Escherichia coli): 72%

O=C(Cn1cc(-c2ccc(O)cc2)nn1)Nc1nc2ccccc2[nH]1
inhibition (Pseudomonas aeruginosa [2]): 34%

O=C(Nc1ccc(S(=O)(=O)N[C@H]2CCOC2=O)cc1)c1cccc(Cl)c1
IC50 [3]: 8.56 µM
